Calls of active or inactive are those of the source.
Legend:
HEK293 [1] = experiment: NOD2 signaling inhibitors in MDP-stimulated cells, cell-based, uHTS, luminescence (AID 2001); type: functional; conditions: Homo sapiens
HEK293 [2] = experiment: cells; type: functional, cell-based; conditions: Homo sapiens
HEK293 [3] = experiment: inhibition of NOD1-driven NF-kB reporter – cell-based, luminescence, uHTS, primary screen (AID 1578); type: functional; conditions: Homo sapiens
HEK293 [4] = experiment: cells; type: functional, cell-based; conditions: Homo sapiens; remark: listed apart in the source
[5] = target: Cyclin-dependent kinase 5/CDK5 activator 1 (Homo sapiens, UniProt Q00535); experiment: blockade of human CDK5 activity – biochemical, cherry-picked samples, set 2, dose response (AID 504545)
[6] = target: DNA damage-inducible transcript 3 protein (Mus musculus, UniProt P35639); type: functional, Cricetulus griseus
[7] = target: T1, E3 ubiquitin-protein ligase XIAP (Homo sapiens, UniProt P98170); experiment: small molecules displacing peptide from XIAP – biochemical, IAP family, fluorescence polarization (AID 1018); type: functional
[8] = target: T1, E3 ubiquitin-protein ligase XIAP; experiment: Counter Screen using XIAP-Bir3 for Chemical Antagonists of Bir1/2 domains of IAP-family anti-apoptotic proteins. [Related pubchem assays (depositor defined):AID1018, AID1449, AID1514, AID1638, AID1749, AID1750, AID488957, AID488963]
[9] = fluconazole-exposed Candida albicans growth modulators – fluorescence, retest, confirmation (AID 2467); type: functional, cell-based
[10] = target: T2, Microphthalmia-associated transcription factor (Homo sapiens, UniProt O75030); experiment: reducers of TRPM1 reporter luminescence, concentration series – cell-based, SK-MEL-5, cherry-picked, set 3, MITF inhibitor project, dose response (AID 493073); type: functional;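 note: SK-MEL-5 melanoma cells with luciferase driven by the MITF target TRPM1 promoter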
T2 sequence (O75030 whole entry): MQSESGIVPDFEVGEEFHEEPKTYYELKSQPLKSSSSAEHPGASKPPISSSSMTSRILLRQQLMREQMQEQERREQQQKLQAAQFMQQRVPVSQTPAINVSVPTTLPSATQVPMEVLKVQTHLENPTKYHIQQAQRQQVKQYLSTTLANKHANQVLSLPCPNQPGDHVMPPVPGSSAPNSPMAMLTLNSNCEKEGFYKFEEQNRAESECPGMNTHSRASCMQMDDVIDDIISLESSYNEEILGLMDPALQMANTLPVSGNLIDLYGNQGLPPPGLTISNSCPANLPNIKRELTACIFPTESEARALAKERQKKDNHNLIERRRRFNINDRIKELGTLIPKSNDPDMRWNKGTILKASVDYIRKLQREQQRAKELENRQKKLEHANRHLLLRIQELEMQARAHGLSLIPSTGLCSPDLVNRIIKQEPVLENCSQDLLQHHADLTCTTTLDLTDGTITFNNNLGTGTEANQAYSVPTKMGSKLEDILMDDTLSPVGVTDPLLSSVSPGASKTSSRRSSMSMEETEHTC

Vero = experiment: cells; type: functional; conditions: Chlorocebus sabaeus
INS1 = experiment: INS-1E survival protection against cytokine death – cell-based, luminescence, retest, dose response (AID 449756); type: functional; conditions: Rattus norvegicus;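 note: cell death triggered by IL-1 beta plus TNF-alpha plus IFN-gamma mixture; protective hits raise ATP signal compared with cytokine alone wells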
Protein Wnt-3a = Protein Wnt-3a (Mus musculus, UniProt P27467); experiment: antagonism of Wnt3a pathway luciferase reporter – Wnt-LIGHT cells, luminescence, selectivity assay for Gli-SUFU antagonist project, dose response (AID 651570); type: functional; conditions: read-out: IC50_Mean;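 note: Wnt-LIGHT reporter cells stimulated with conditioned medium from Wnt3a-producing cells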
[11] = NIH-3T3 fibroblast cytotoxicity, dose response, cytotoxicity control, cell-based, fluorescence, Alamar Blue, secondary assay (AID 2327); type: functional;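 note: NIH-3T3 mouse fibroblasts cultured with fluconazole at 8 µg/mL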
SUMO-activating enzyme = SUMO-activating enzyme (Homo sapiens, UniProt Q9UBT2); experiment: blockers of UBC9-mediated SUMO conjugation – biochemical, AlphaScreen, SUMOylation inhibitor project, confirmation (AID 2018); type: functional
CAAX prenyl protease 2 = target: T3, CAAX prenyl protease 2 (Saccharomyces cerevisiae S288c, UniProt Q03530); type: biochemical
T3 sequence (Q03530 whole entry): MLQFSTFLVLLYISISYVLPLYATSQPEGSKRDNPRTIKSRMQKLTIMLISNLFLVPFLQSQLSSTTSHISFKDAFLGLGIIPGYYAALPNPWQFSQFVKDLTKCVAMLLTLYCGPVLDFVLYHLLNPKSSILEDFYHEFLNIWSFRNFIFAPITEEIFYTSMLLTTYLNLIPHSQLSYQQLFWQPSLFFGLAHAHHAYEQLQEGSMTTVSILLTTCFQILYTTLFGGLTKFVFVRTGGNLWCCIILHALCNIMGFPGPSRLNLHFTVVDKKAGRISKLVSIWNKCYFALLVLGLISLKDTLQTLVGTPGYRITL

Trypsin = Trypsin (Sus scrofa, UniProt P00761); experiment: trypsin protease activity blockade – biochemical, quenched peptide fluorescence, cherry-pick, selectivity assay for Rce1 protease inhibitor project, dose response (AID 488789)
[12] = target: T4, Short transient receptor potential channel 4 (Mus musculus, UniProt Q9QUQ5); experiment: potentiation of DAMGO-evoked TRPC4 calcium signal – cell-based, HEK293 TRPC4/mu-opioid, Fluo-4 calcium, EC20 DAMGO, dose response (AID 434941); type: functional
T4 sequence (Q9QUQ5 whole entry): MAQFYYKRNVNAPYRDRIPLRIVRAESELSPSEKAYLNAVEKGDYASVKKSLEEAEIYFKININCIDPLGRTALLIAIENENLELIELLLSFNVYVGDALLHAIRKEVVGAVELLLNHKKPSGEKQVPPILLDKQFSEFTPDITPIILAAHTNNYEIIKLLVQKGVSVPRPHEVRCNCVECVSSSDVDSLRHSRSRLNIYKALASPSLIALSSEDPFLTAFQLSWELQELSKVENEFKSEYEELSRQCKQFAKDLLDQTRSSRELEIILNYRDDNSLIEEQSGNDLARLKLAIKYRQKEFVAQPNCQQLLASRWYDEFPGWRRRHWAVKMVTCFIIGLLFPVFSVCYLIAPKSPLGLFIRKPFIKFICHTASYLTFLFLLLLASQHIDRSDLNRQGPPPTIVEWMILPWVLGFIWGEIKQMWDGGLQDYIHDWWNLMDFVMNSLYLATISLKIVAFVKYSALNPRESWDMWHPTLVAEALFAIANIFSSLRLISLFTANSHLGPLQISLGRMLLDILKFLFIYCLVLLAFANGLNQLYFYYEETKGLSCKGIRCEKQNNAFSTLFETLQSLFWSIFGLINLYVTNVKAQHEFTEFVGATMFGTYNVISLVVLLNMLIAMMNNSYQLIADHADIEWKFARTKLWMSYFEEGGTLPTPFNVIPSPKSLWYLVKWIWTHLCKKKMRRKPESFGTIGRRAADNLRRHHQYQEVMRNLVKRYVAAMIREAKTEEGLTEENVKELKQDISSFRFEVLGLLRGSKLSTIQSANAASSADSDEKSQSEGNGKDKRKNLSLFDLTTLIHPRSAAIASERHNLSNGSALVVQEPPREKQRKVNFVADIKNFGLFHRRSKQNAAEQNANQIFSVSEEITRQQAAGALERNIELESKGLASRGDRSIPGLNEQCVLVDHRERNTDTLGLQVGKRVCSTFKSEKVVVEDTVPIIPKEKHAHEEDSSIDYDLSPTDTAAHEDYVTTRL

[13] = target: T4, Short transient receptor potential channel 4; experiment: calcium entry via TRPC4 opening agents – cell-based, HEK293 TRPC4/mu-opioid, Fluo-4 calcium, dose response (AID 434937); type: functional
[14] = NIH3T3 cell viability loss – ATP luminescence, mouse fibroblasts, counter-screen, dose response (AID 2010); type: functional, cell-based;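 note: cells exposed to compound for about 90 hours before reading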
[15] = Trypanosoma cruzi growth suppression in host cells – NIH3T3 host cells, beta-gal luminescence, confirmation (AID 2044); type: functional, cell-based;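 note: intracellular parasites grown in NIH/3T3 mouse fibroblasts as host cells; luminescent beta-galactosidase reporter signal from transgenic T. cruzi replicating inside host cells; inhibitors lower the luminescence signal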
[16] = target: DNA dC->dU-editing enzyme APOBEC-3A (Homo sapiens, UniProt P31941); experiment: Dose Response confirmation of small molecule APOBEC3A DNA Deaminase Inhibitors via a fluorescence-based single-stranded DNA deaminase assay. [Related pubchem assays (depositor defined):AID493011, AID493024]; type: functional
[17] = target: DNA dC->dU-editing enzyme APOBEC-3G (Homo sapiens, UniProt Q9HC16); type: functional;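 note: Dose-response counterscreen measuring inhibition of APOBEC3G DNA deaminase activity, run while confirming APOBEC3A inhibitors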
Hexokinase HKDC1 = target: T5, Hexokinase HKDC1 (Homo sapiens, UniProt Q2TB90); experiment: inhibition of HKDC1 glucose phosphorylation – biochemical, W721R variant, dose response (AID 504729); type: functional
T5 sequence (Q2TB90 whole entry): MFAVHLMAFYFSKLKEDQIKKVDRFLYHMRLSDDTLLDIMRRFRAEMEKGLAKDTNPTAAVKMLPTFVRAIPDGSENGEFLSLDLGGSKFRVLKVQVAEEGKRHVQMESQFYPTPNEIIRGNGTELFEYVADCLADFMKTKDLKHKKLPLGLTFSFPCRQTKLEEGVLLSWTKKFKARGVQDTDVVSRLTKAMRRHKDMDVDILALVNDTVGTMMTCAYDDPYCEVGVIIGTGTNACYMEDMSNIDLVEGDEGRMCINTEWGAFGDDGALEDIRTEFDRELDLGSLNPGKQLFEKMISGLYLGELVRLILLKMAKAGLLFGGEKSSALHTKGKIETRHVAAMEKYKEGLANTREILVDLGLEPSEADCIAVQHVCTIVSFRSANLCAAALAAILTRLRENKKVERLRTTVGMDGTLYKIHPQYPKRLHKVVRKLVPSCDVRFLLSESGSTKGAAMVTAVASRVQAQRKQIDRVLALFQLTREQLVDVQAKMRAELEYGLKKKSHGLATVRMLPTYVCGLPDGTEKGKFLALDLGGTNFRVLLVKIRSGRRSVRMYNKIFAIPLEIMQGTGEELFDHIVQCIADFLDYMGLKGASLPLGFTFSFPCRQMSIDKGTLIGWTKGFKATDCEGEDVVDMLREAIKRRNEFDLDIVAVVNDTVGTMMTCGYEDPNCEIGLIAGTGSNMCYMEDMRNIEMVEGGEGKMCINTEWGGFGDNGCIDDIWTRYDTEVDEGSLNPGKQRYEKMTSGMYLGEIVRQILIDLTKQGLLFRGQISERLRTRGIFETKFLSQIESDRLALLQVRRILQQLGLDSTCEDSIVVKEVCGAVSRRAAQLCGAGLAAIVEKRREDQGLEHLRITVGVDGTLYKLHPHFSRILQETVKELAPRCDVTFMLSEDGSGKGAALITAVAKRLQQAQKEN

[18] = target: T6, Carboxy-terminal domain RNA polymerase II polypeptide A small phosphatase 1 (Homo sapiens, UniProt Q9GZU7); experiment: CTDSP1 inhibitors, concentration-response, biochemical, absorbance readout, ultra-high-throughput screen actives (AID 540297); type: functional
T6 sequence (Q9GZU7 whole entry): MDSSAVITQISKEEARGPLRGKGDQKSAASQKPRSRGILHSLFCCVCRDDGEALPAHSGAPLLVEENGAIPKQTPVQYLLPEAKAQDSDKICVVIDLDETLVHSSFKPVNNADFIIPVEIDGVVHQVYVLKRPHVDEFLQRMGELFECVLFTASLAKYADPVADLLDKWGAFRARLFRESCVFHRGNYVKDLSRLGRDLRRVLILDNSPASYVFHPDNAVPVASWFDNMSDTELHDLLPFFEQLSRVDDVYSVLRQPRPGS

Beta-galactosidase = Beta-galactosidase (Escherichia coli, UniProt Q8VNN2); experiment: detection-enzyme interference by beta-gal modulators – biochemical, E. coli enzyme, set 3, artefact control for CCR6 antagonist project, dose response (AID 504712); type: functional
Sequence of Beta-galactosidase (Q8VNN2 whole entry): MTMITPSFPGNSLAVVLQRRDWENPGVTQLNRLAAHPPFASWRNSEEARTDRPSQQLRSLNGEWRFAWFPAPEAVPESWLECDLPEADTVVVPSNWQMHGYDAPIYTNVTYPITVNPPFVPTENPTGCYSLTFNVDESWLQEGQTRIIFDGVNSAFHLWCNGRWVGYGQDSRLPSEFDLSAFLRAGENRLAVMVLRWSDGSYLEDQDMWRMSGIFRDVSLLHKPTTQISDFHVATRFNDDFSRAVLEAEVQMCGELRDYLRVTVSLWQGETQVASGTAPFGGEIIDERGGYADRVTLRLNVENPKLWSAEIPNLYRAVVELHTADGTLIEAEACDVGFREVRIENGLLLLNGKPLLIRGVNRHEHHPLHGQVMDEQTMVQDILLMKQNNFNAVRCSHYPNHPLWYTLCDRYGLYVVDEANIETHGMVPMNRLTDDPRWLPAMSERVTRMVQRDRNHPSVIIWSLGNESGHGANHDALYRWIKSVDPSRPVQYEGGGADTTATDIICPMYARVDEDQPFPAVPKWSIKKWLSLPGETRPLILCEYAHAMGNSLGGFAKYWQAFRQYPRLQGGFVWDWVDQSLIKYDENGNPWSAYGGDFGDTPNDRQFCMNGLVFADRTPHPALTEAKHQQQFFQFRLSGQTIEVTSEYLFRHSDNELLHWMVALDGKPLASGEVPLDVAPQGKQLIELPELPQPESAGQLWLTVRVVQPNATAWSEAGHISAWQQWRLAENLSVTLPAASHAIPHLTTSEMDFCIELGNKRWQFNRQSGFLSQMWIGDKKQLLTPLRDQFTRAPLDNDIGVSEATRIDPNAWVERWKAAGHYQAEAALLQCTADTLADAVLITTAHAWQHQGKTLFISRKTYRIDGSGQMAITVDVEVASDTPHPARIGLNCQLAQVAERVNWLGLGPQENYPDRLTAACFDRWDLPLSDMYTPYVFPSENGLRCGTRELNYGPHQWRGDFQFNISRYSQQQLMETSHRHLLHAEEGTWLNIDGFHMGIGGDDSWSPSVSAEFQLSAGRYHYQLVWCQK

T1 sequence (P98170 whole entry): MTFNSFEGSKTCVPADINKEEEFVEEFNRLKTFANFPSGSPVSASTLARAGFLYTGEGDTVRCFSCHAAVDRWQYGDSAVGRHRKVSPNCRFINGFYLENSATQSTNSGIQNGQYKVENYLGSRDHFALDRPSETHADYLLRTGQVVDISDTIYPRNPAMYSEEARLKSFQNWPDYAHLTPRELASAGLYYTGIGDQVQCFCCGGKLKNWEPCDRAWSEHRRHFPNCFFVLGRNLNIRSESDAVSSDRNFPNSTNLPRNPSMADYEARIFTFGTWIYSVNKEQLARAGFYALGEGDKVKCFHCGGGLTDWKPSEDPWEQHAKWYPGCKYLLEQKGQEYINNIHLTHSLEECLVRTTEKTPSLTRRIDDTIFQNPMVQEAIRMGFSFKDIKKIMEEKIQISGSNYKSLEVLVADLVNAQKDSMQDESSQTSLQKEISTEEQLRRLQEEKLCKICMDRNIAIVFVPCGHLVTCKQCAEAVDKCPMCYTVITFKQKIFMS
Sequence of DNA dC->dU-editing enzyme APOBEC-3G (Q9HC16 whole entry): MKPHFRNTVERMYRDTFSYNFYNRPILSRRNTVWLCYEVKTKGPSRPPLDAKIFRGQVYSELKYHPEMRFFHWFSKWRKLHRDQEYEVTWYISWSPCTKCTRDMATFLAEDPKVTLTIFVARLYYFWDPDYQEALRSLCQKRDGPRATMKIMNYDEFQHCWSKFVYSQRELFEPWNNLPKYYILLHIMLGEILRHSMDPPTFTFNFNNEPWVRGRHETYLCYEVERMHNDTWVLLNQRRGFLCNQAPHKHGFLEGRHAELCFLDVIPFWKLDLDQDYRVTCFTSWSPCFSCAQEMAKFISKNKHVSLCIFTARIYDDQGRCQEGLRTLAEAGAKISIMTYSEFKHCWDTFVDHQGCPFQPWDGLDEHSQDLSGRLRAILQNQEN
Sequence of SUMO-activating enzyme (Q9UBE0 whole entry): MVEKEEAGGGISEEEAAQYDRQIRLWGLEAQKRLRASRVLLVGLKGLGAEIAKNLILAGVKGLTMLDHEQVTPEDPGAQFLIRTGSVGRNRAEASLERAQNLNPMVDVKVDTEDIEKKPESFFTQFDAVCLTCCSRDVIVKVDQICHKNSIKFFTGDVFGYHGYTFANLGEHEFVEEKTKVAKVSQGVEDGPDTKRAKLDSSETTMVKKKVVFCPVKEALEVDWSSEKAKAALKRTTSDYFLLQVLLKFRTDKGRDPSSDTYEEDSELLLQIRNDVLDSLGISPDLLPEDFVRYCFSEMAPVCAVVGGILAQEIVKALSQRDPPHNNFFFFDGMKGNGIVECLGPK
Sequence of SUMO-activating enzyme (Q9UBT2 whole entry): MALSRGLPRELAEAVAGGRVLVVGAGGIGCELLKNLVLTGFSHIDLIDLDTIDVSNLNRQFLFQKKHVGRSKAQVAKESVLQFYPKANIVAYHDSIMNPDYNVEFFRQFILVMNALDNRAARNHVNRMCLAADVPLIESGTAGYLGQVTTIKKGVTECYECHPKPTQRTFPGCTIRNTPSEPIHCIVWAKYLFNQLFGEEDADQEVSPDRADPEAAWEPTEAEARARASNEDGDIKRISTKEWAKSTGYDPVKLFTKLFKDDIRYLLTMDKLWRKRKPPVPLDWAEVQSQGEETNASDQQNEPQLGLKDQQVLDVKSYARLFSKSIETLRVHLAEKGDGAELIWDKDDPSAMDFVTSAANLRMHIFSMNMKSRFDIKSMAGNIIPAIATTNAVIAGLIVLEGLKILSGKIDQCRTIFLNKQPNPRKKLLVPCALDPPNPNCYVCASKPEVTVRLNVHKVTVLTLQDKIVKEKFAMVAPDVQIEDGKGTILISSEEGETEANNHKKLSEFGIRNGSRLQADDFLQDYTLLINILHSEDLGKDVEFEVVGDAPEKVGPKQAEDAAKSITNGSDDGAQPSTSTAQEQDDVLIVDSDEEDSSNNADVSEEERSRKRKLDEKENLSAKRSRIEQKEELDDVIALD
Sequence of DNA damage-inducible transcript 3 protein (P35639 whole entry): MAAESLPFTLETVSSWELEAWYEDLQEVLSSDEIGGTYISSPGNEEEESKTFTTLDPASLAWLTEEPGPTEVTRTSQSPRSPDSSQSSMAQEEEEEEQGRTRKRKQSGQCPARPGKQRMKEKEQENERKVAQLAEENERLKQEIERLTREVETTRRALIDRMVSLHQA
Sequence of DNA dC->dU-editing enzyme APOBEC-3A (P31941 whole entry): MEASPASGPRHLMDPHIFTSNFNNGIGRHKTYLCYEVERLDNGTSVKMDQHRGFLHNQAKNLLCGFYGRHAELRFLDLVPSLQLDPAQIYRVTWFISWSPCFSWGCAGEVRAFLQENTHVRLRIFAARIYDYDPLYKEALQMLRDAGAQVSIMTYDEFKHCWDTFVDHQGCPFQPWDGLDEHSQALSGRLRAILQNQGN
Sequence of Protein Wnt-3a (P27467 whole entry): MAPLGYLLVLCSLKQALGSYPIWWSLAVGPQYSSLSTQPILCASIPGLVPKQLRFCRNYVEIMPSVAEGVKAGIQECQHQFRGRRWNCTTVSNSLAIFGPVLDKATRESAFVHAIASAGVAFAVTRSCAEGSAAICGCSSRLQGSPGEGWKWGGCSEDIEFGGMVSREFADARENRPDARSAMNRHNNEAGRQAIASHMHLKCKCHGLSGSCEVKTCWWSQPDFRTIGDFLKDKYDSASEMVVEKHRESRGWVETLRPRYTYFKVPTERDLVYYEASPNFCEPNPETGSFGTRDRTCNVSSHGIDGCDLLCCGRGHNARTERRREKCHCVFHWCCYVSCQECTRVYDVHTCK
Sequence of Cyclin-dependent kinase 5/CDK5 activator 1 (Q00535 whole entry): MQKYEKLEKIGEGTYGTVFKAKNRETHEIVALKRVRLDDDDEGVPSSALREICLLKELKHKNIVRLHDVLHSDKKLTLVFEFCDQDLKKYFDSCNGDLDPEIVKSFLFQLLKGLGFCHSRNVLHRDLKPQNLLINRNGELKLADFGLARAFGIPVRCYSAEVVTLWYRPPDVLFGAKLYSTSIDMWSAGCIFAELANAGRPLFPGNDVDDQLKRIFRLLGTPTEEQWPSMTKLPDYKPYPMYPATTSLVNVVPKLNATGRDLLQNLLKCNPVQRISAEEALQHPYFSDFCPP
Sequence of Cyclin-dependent kinase 5/CDK5 activator 1 (Q15078 whole entry, further chain): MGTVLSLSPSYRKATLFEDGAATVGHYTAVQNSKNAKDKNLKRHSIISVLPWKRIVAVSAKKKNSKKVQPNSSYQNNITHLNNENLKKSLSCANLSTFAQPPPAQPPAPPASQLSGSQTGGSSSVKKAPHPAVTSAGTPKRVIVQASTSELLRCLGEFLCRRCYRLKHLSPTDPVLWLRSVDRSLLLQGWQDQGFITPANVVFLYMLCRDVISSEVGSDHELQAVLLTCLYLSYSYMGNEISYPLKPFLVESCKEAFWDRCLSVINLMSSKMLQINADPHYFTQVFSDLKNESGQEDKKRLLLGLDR
Sequence of Trypsin (P00761 whole entry): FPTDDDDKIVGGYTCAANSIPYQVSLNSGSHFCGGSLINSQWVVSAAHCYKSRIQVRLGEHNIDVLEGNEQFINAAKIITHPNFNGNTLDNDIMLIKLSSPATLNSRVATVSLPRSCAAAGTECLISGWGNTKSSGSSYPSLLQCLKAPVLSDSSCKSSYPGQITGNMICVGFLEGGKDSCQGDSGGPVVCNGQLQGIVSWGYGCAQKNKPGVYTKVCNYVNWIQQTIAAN

Cc1cccc(NC(=O)c2cccc(NS(=O)(=O)c3ccc(Cl)cc3)c2)c1
IC50 (HEK293 [1]): 12.6 µM (inactive) | IC50 (HEK293 [2]): > 20 µM (inactive) | EC50 (HEK293 [3]): 9.39 µM (active) | IC50 (HEK293 [4]): > 20 µM (inactive)

O=C(Cc1ccc(O)cc1)NCCN=C(S)NCc1ccccc1
AC50 [5]: 27.6 µM (active)

COc1ccccc1-c1nnc(NC(=O)c2ccc(S(=O)(=O)N(C)Cc3ccccc3)cc2)o1
Absolute IC50 (CHOP) [6]: 10 µM

CCN(CC)c1ccc(S(=O)(=O)N2CCOCC2)cc1NC(=O)CSc1cccc[n+]1[O-]
IC50 [7]: > 100 µM (not active) | IC50 [8]: > 100 µM (inactive)

CCOc1ccc(N2C(=O)/C(=C\NNc3nc(C)cc(C)n3)c3ccccc3C2=O)cc1
EC50 [9]: > 38 µM (not active) | AC50 [10]: 3.48 µM (active) | CC50 (Vero): 10.3 µM (active) | AC50 (INS1): 2.24 µM (active) | IC50 (Protein Wnt-3a): 11.2 µM (active) | EC50 [11]: 47.9 µM (active)

CCc1cc(=O)oc2c3c(cc(OCC(=O)NCCCCCC(=O)O)c12)OC(C)(C)CC3
IC50 (SUMO-activating enzyme): > 100 µM (inactive) | AC50 (CAAX prenyl protease 2): 14 µM (active) | AC50 (Trypsin): 4.32 µM (active)

Nc1cc(N2CCNCC2)ccc1[N+](=O)[O-]
EC50 [12]: 0.19 µM (active) | EC50 [13]: 1.19 µM (active)

O=[N+]([O-])c1ccc(/C=N/Nc2nc(N3CCCCC3)nc(N3CCCCC3)n2)o1
EC50 [12]: 5.96 µM (active) | EC50 [14]: > 60 µM (inconclusive) | EC50 [15]: 0.225 µM (active)

O=C(NNC(=O)c1cccc2ccccc12)c1ccc(-c2ccccc2)cc1
Absolute IC50 (CHOP) [6]: 10 µM

C[C@@H]1CC2(CCCC[N+]2(C)C)C[C@H]1C
IC50 [16]: 1.61 µM (active) | IC50 [17]: 3.7 µM (active)

Nc1c(C(=O)NCc2ccco2)c2nc3ccccc3nc2n1CCc1ccc(F)cc1
IC50 (SUMO-activating enzyme): 34.7 µM (active)

Nc1c(NC2CCCCC2)c2ccccc2oc1=O
IC50 [7]: > 100 µM (not active) | IC50 [8]: > 100 µM (inactive)

Cc1ccc(S(=O)(=O)N2CCC(N3CCN(C)CC3)CC2)cc1Cl
EC50 [12]: 0.94 µM (active)

Cc1ccc(/C=C2\SC(=S)N(CCC(=O)NNS(=O)(=O)c3ccc(C)cc3)C2=O)cc1
IC50 [7]: > 100 µM (not active) | IC50 [8]: > 100 µM (inactive)

O=Cc1[nH]c2ccccc2c1N(C(=O)CCl)c1ccccc1
IC50 (Hexokinase HKDC1): 43.4 µM (inactive)

CCOc1ccc(OCCCC(=O)N2CCN(S(=O)(=O)c3ccc(Cl)cc3)CC2)cc1
IC50 [16]: 2.04 µM (active) | IC50 [17]: 2.23 µM (active) | IC50 [18]: 6.6 µM (active)

C/C(CC1CC2=C(CC1(C)C)C(C)(C)CCC2)=N\NC(N)=S (centres undefined)
EC50 [14]: > 60 µM (not active) | EC50 [15]: < 0.1 µM (active) | EC50 (cells): 0.139 µM (active) | IC50 (Beta-galactosidase): > 66.6 µM (inactive)
